The results in this text go back to PubChem BioAssay AID1259407 (Chemical Carcinogenesis Research Information System (CCRIS), 2018).

Calls of active or inactive are those of the source. No rule for the calls is given here.

The subject of this data set is CCRIS mutagenicity, Ames/micronucleus/aberration tests. Briefly: CCRIS mutagenicity studies.
The mark [1] stands for this setting: Test System: AMES SALMONELLA TYPHIMURIUM, Strain/Indicator: TA98, Metabolic Activation: NONE, Method: PREINCUBATION
[2] abbreviates: Test System: AMES SALMONELLA TYPHIMURIUM, Strain/Indicator: TA100, Metabolic Activation: NONE, Method: PREINCUBATION
The mark [3] stands for this setting: Test System: AMES SALMONELLA TYPHIMURIUM, Strain/Indicator: TA1535, Metabolic Activation: NONE, Method: PREINCUBATION
[4] abbreviates: Test System: AMES SALMONELLA TYPHIMURIUM, Strain/Indicator: TA98, Metabolic Activation: NONE, Method: STANDARD PLATE.
The mark [5] stands for this setting: Test System: AMES SALMONELLA TYPHIMURIUM, Strain/Indicator: TA100, Metabolic Activation: NONE, Method: STANDARD PLATE.

`Cc1c(N)cccc1N`: the mutagenic call runs as follows: (End Point: IN VITRO CHROMOSOMAL ABERRATIONS, Test System: CHINESE HAMSTER LUNG CELLS (CHL), Metabolic Activation: NONE) “active; positive (structural changes)”; (End Point: IN VITRO CHROMOSOMAL ABERRATIONS, Test System: CHINESE HAMSTER LUNG CELLS (CHL), Metabolic Activation: RAT, LIVER, S-9, KC-400) “active; positive (structural changes)”; (End Point: IN VITRO CHROMOSOMAL ABERRATIONS, Test System: CHINESE HAMSTER OVARY CELLS (CHO), Metabolic Activation: NONE) “active; positive (structural changes)”; (End Point: IN VITRO CHROMOSOMAL ABERRATIONS, Test System: CHINESE HAMSTER OVARY CELLS (CHO), Metabolic Activation: RAT, LIVER, S-9, AROCLOR 1254) “inactive; negative”; (End Point: IN VITRO CHROMOSOMAL ABERRATIONS, Test System: CHO CELLS, Metabolic Activation: RAT, LIVER, S-9, AROCLOR 1254) “inactive; negative”; (Test System: AMES SALMONELLA TYPHIMURIUM, Strain/Indicator: TA97, Metabolic Activation: HAMSTER, LIVER, S-9, AROCLOR 1254 (10%), Method: PREINCUBATION) “active; positive”. Besides, the mutagenic call (Test System: AMES SALMONELLA TYPHIMURIUM, Strain/Indicator: TA97, Metabolic Activation: NONE, Method: PREINCUBATION) was “inactive; negative”; the mutagenic call (Test System: AMES SALMONELLA TYPHIMURIUM, Strain/Indicator: TA97, Metabolic Activation: RAT, LIVER, S-9, AROCLOR 1254 (10%), Method: PREINCUBATION) was “inactive; negative”; the mutagenic call (Test System: AMES SALMONELLA TYPHIMURIUM, Strain/Indicator: TA98, Metabolic Activation: HAMSTER, LIVER, S-9, AROCLOR 1254 (10%), Method: PREINCUBATION) was “active; positive”; the mutagenic call under setting [1] is “inactive; negative”; the mutagenic call (Test System: AMES SALMONELLA TYPHIMURIUM, Strain/Indicator: TA98, Metabolic Activation: RAT, LIVER, S-9, AROCLOR 1254 (10%), Method: PREINCUBATION) was “active; positive”; the mutagenic call (Test System: AMES SALMONELLA TYPHIMURIUM, Strain/Indicator: TA100, Metabolic Activation: HAMSTER, LIVER, S-9, AROCLOR 1254 (10%), Method: PREINCUBATION) is “active; positive”. Further, the mutagenic call under setting [2] is “inactive; negative”; the mutagenic call (Test System: AMES SALMONELLA TYPHIMURIUM, Strain/Indicator: TA100, Metabolic Activation: RAT, LIVER, S-9, AROCLOR 1254 (10%), Method: PREINCUBATION) is “active; positive”; the mutagenic call (Test System: AMES SALMONELLA TYPHIMURIUM, Strain/Indicator: TA1535, Metabolic Activation: HAMSTER, LIVER, S-9, AROCLOR 1254 (10%), Method: PREINCUBATION) was “active; positive”; the mutagenic call under setting [3] is “inactive; negative”; the mutagenic call (Test System: AMES SALMONELLA TYPHIMURIUM, Strain/Indicator: TA1535, Metabolic Activation: RAT, LIVER, S-9, AROCLOR 1254 (5, 10 OR 30%), Method: PREINCUBATION) is “inactive; negative”.

With `Oc1cccc2c1[nH]c1ccccc12`, the mutagenic call (Test System: CHINESE HAMSTER OVARY, Strain/Indicator: CHO-K1-BH4 (HGPRT)/6-THIOGUANINE, Metabolic Activation: RAT, LIVER, S-9, AROCLOR (4%)) is “active; positive”.

On to `Nc1cccc2cccc(S(=O)(=O)O)c12`, for which the mutagenic call was “inactive; negative” under setting [1]; “active; positive” (Test System: AMES SALMONELLA TYPHIMURIUM, Strain/Indicator: TA98, Metabolic Activation: RAT LIVER S-9, PHENOBARBITAL AND BETA-NAPHTHOFLAVONE, Method: PREINCUBATION); “inactive; negative” under setting [2]; “inactive; negative” (Test System: AMES SALMONELLA TYPHIMURIUM, Strain/Indicator: TA100, Metabolic Activation: RAT LIVER S-9, PHENOBARBITAL AND BETA-NAPHTHOFLAVONE, Method: PREINCUBATION); “inactive; negative” under setting [3]; “inactive; negative” (Test System: AMES SALMONELLA TYPHIMURIUM, Strain/Indicator: TA1535, Metabolic Activation: RAT LIVER S-9, PHENOBARBITAL AND BETA-NAPHTHOFLAVONE, Method: PREINCUBATION). The mutagenic call (Test System: AMES SALMONELLA TYPHIMURIUM, Strain/Indicator: TA1537, Metabolic Activation: NONE, Method: PREINCUBATION) is “inactive; negative”; the mutagenic call (Test System: AMES SALMONELLA TYPHIMURIUM, Strain/Indicator: TA1537, Metabolic Activation: RAT LIVER S-9, PHENOBARBITAL AND BETA-NAPHTHOFLAVONE, Method: PREINCUBATION) was “active; positive”; the mutagenic call (Test System: AMES SALMONELLA TYPHIMURIUM, Strain/Indicator: TA1538, Metabolic Activation: NONE, Method: PREINCUBATION) was “inactive; negative”; the mutagenic call (Test System: AMES SALMONELLA TYPHIMURIUM, Strain/Indicator: TA1538, Metabolic Activation: RAT LIVER S-9, PHENOBARBITAL AND BETA-NAPHTHOFLAVONE, Method: PREINCUBATION) was “active; positive”; the mutagenic call (Test System: E.COLI, Strain/Indicator: WP2UVRA, Metabolic Activation: NONE, Method: PREINCUBATION) is “inactive; negative”; the mutagenic call (Test System: E.COLI, Strain/Indicator: WP2UVRA, Metabolic Activation: RAT LIVER S-9, PHENOBARBITAL AND BETA-NAPHTHOFLAVONE, Method: PREINCUBATION) was “inactive; negative”.

Regarding `O=C1OC(O)C(C(Br)Br)=C1Br` (stereo unspecified), the mutagenic call is “active; positive” under setting [4]; “inactive; negative” (Test System: AMES SALMONELLA TYPHIMURIUM, Strain/Indicator: TA98, Metabolic Activation: RAT LIVER S-9, AROCLOR 1254, Method: STANDARD PLATE); “active; positive” under setting [5]; “inactive; negative” (Test System: AMES SALMONELLA TYPHIMURIUM, Strain/Indicator: TA100, Metabolic Activation: RAT LIVER S-9, AROCLOR 1254, Method: STANDARD PLATE).

Turning to `CC1(C)CC2=C(C=O)[C@@]3(C=O)C[C@@]3(C)[C@@H](O)[C@@H]2C1`, the mutagenic call was “active; positive” under setting [4]; “active; positive” under setting [5]; “inactive; negative” (Test System: CHINESE HAMSTER V-79, Strain/Indicator: V-79/6-THIOGUANINE (HGPRT), Metabolic Activation: NONE).

In the case of `CSc1nc2cc(Oc3cccc(Cl)c3Cl)c(Cl)cc2[nH]1`, the mutagenic call was “active; positive (structural and ploidy changes)” (End Point: IN VITRO CHROMOSOMAL ABERRATIONS, Test System: RIVER BUFFALO LYMPHOCYTES, Metabolic Activation: NONE); “active; positive” (End Point: IN VITRO MICRONUCLEUS, Test System: RIVER BUFFALO LYMPHOCYTES, Metabolic Activation: NONE).

With `Nc1ccc2nc3ccccc3nc2c1`, the mutagenic call is, setting by setting: under setting [1], “inactive; negative”; (Test System: AMES SALMONELLA TYPHIMURIUM, Strain/Indicator: TA98, Metabolic Activation: RAT, LIVER, S-9, PCB, Method: PREINCUBATION) “active; positive”.
